Reference: patent publication US9505726B2, “Substituted biphenyl amides as P2X3 and P2X2/3 antagonists” (Roche Palo Alto LLC, priority 2009, dated 2016)

Target: T1, rat P2X3 receptor (Rattus norvegicus, UniProt P49654)
T1 construct: expressed in transfected cells; host or cells: CHO-K1
T1 sequence (P49654 1-397): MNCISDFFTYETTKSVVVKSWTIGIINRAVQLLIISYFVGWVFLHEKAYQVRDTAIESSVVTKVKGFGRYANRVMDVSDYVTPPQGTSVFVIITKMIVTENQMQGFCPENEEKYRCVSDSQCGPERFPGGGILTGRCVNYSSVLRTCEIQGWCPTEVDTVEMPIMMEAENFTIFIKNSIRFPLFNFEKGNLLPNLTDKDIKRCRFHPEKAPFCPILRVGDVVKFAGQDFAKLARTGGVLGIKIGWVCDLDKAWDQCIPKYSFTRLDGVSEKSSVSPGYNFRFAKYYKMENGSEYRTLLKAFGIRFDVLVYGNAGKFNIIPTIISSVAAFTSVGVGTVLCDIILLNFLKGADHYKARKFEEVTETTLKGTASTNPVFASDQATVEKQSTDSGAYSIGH
Experiment: P2X3 FLIPR (Fluorometric Imaging Plate Reader) assay
Format: cell-based
Details: CHO-K1 cells transfected with cloned rat P2X3, agonist α,β-meATP 1 μM, Fluo-3 AM calcium fluorescence; for IC50: read-out: P2X3 (pIC50 values for the P2X3 receptor) (converted)
Procedure: CHO-K1 cells were transfected with cloned rat P2X3 or human P2X2/3 receptor subunits and passaged in flasks. 18-24 hours before the FLIPR experiment, cells were released from their flasks, centrifuged, and resuspended in nutrient medium at 2.5×10^5 cells/ml. The cells were aliquoted into black-walled 96-well plates at a density of 50,000 cells/well and incubated overnight in 5% CO2 at 37° C. On the day of the experiment, cells were washed in FLIPR buffer (calcium- and magnesium-free Hank's balanced salt solution, 10 mM HEPES, 2 mM CaCl2, 2.5 mM probenecid; FB). Each well received 100 μl FB and 100 μl of the fluorescent dye Fluo-3 AM [2 μM final conc.]. After a 1 hour dye loading incubation at 37° C., the cells were washed 4 times with FB, and a final 75 μl/well FB was left in each well.
Test compounds (dissolved in DMSO at 10 mM and serially diluted with FB) or vehicle were added to each well (25 μl of a 4× solution) and allowed to equilibrate for 20 minutes at room temperature. The plates were then placed in the FLIPR and a baseline fluorescence measurement (excitation at 488 nm and emission at 510-570 nm) was obtained for 10 seconds before a 100 μl/well agonist or vehicle addition. The agonist was a 2X solution of α,β-meATP producing a final concentration of 1 μM (P2X3) or 5 μM (P2X2/3). Fluorescence was measured for an additional 2 minutes at 1 second intervals after agonist addition. A final addition of ionomycin (5 μM, final concentration) was made to each well of the FLIPR test plate to establish cell viability and maximum fluorescence of dye-bound cytosolic calcium. Peak fluorescence in response to the addition of α,β-meATP (in the absence and presence of test compounds) was measured and inhibition curves generated using nonlinear regression. PPADS, a standard P2X antagonist, was used as a positive control.

| Compound | P2X3 (pIC50 values for the P2X3 receptor) | IC50 [nM] |
| --- | --- | --- |
| CCC(=O)N(c1cc(C(=O)NC(C)c2cnccn2)cc(-c2ccc(C)cc2)c1)c1ccncn1 (stereo not drawn) [Compound 25, 4′-Methyl-5-(propionyl-pyrimidin-4-yl-amino)-biphenyl-3-carboxylic acid (1-pyrazin-2-yl-ethyl)-amide] | 6.16 | – |
| Cc1ccc(-c2cc(C(=O)NC(C)c3cnccn3)cc(N(C(=O)C(C)C)c3ccncn3)c2)cc1 (stereo not drawn) [Compound 26, 5-(Isobutyryl-pyrimidin-4-yl-amino)-4′-methyl-biphenyl-3-carboxylic acid (1-pyrazin-2-yl-ethyl)-amide] | 6.99 | – |
| CCN(C(=O)c1cnccn1)c1cc(C(=O)NC(C)c2cnccn2)cc(-c2ccc(C)cc2)c1 (stereo not drawn) [Compound 27, Pyrazine-2-carboxylic acid ethyl-[4′-methyl-5-(1-pyrazin-2-yl-ethylcarbamoyl)-biphenyl-3-yl]-amide] | – | 4470 |
| CCN(C(=O)c1ccncc1)c1cc(C(=O)NC(C)COC)cc(-c2ccc(C)cc2)c1 (stereo not drawn) [Compound 28, N-Ethyl-N-[5-(2-methoxy-1-methyl-ethylcarbamoyl)-4′-methyl-biphenyl-3-yl]-isonicotinamide] | 5.4 | – |
| CCN(C(=O)CC(C)C)c1cc(C(=O)NC(C)c2cnccn2)cc(-c2ccc(C)cc2)c1 (stereo not drawn) [Compound 29, 5-[Ethyl-(3-methyl-butyryl)-amino]-4′-methyl-biphenyl-3-carboxylic acid (1-pyrazin-2-yl-ethyl)-amide] | 7.38 | – |
| CCN(C(=O)CC(C)C)c1cc(C(=O)NC(C)CO)cc(-c2ccc(C)cc2)c1 (stereo not drawn) [Compound 30, 5-[Ethyl-(3-methyl-butyryl)-amino]-4′-methyl-biphenyl-3-carboxylic acid (2-hydroxy-1-methyl-ethyl)-amide] | 7.33 | – |
| CCN(C(=O)c1cccnc1)c1cc(C(=O)NC(C)c2cnccn2)cc(-c2ccc(C)cc2)c1 (stereo not drawn) [Compound 31, N-Ethyl-N-[4′-methyl-5-(1-pyrazin-2-yl-ethylcarbamoyl)-biphenyl-3-yl]-nicotinamide] | 5.91 | – |
| Cc1ccc(-c2cc(C(=O)NC(C)c3cnccn3)cc(N(C)C(=O)C(C)(C)C)c2)cc1 (stereo not drawn) [Compound 32, 5-[(2,2-Dimethyl-propionyl)-methyl-amino]-4′-methyl-biphenyl-3-carboxylic acid (1-pyrazin-2-yl-ethyl)-amide] | 8.01 | – |
| Cc1ccc(-c2cc(C(=O)NC(C)c3cnccn3)cc(N(C)C(=O)C(C)C)c2)cc1 (stereo not drawn) [Compound 33, 5-(Isobutyryl-methyl-amino)-4′-methyl-biphenyl-3-carboxylic acid (1-pyrazin-2-yl-ethyl)-amide] | 8.3 | – |
| Cc1ccc(-c2cc(C(=O)NC(C)c3cnccn3)cc(N(C)C(=O)C3CC3)c2)cc1 (stereo not drawn) [Compound 34, 5-(Cyclopropanecarbonyl-methyl-amino)-4′-methyl-biphenyl-3-carboxylic acid (1-pyrazin-2-yl-ethyl)-amide] | – | 10.7 |
| CCN(C(=O)OCC(C)C)c1cc(C(=O)NC(C)c2cnccn2)cc(-c2ccc(C)cc2)c1 (stereo not drawn) [Compound 35, Ethyl-[4′-methyl-5-(1-pyrazin-2-yl-ethylcarbamoyl)-biphenyl-3-yl]-carbamic acid isobutyl ester] | 6.82 | – |
| Cc1ccc(-c2cc(C(=O)NC(C)c3cnccn3)cc(N(C)C(=O)c3snnc3C)c2)cc1 (stereo not drawn) [Compound 36, 4-Methyl-[1,2,3]thiadiazole-5-carboxylic acid methyl-[4′-methyl-5-(1-pyrazin-2-yl-ethylcarbamoyl)-biphenyl-3-yl]-amide] | 5.3 | – |
| CCN(C(=O)C(C)C)c1cc(C(=O)NC(C)c2cnccn2)cc(-c2ccc(C)cc2)c1 (stereo not drawn) [Compound 38, 5-(Ethyl-isobutyryl-amino)-4′-mcthyl-biphenyl-3-carboxylic acid (1-pyrazin-2-yl-ethyl)-amide] | 8.11 | – |
| CCN(C(=O)OC)c1cc(C(=O)NC(C)c2cnccn2)cc(-c2ccc(C)cc2)c1 (stereo not drawn) [Compound 39, Ethyl-[4′-methyl-5-(1-pyrazin-2-yl-ethylcarbamoyl)-biphenyl-3-yl]-carbamic acid methyl ester] | 7.28 | – |

Now from value to molecule:

| P2X3 (pIC50 values for the P2X3 receptor) | IC50 [nM] | Compound |
| --- | --- | --- |
| 8.3 | – | Cc1ccc(-c2cc(C(=O)N[C@@H](C)CO)cc(N(C)C(=O)C(C)C)c2)cc1 [Compound 40, 5-(Isobutyryl-methyl-amino)-4′-methyl-biphenyl-3-carboxylic acid ((S)-2-hydroxy-1-methyl-ethyl)-amide] |
| 6.86 | – | CCN(C(=O)C1CCOCC1)c1cc(C(=O)NC(C)c2cnccn2)cc(-c2ccc(C)cc2)c1 (stereo not drawn) [Compound 41, Tetrahydro-pyran-4-carboxylic acid ethyl-[4′-methyl-5-(1-pyrazin-2-yl-ethylcarbamoyl)-biphenyl-3-yl]-amide] |
| 5.53 | – | Cc1ccc(-c2cc(NC(=O)C(C)C)cc(C(=O)NC(C)c3cnccn3)c2)cc1 (stereo not drawn) [Compound 42, 5-Isobutyrylamino-4′-methyl-biphenyl-3-carboxylic acid (1-pyrazin-2-yl-ethyl)-amide] |
| 5.86 | – | Cc1ccc(-c2cc(C(=O)NC(C)c3cnccn3)cc(N(C)C(=O)C3CCOCC3)c2)cc1 (stereo not drawn) [Compound 43, Tetrahydro-pyran-4-carboxylic acid methyl-[4′-methyl-5-(1-pyrazin-2-yl-ethylcarbamoyl)-biphenyl-3-yl]-amide] |
| 5.17 | – | CC(NC(=O)c1cc(-c2ccc(Cl)cc2)cc(N(C)C(=O)N2CCOCC2)c1)c1cnccn1 (stereo not drawn) [Compound 44, Morpholine-4-carboxylic acid [4′-chloro-5-(1-pyrazin-2-yl-ethylcarbamoyl)-biphenyl-3-yl]-methyl-amide] |
| 5.38 | – | CCNC(=O)N(C)c1cc(C(=O)NC(C)c2cnccn2)cc(-c2ccc(Cl)cc2)c1 (stereo not drawn) [Compound 45, 4′-Chloro-5-(3-ethyl-1-methyl-ureido)-biphenyl-3-carboxylic acid (1-pyrazin-2-yl-ethyl)-amide] |
| 8.04 | – | CCC(C)C(=O)N(C)c1cc(C(=O)NC(C)c2cnccn2)cc(-c2ccc(C)cc2)c1 (stereo not drawn) [Compound 46, 4′-Methyl-5-[methyl-(2-methyl-butyryl)-amino]-biphenyl-3-carboxylic acid (1-pyrazin-2-yl-ethyl)-amide] |
| 7.55 | – | CCC(C)(C)C(=O)N(C)c1cc(C(=O)NC(C)c2cnccn2)cc(-c2ccc(C)cc2)c1 (stereo not drawn) [Compound 48, 5-[(2,2-Dimethyl-butyryl)-methyl-amino]-4′-methyl-biphenyl-3-carboxylic acid (1-pyrazin-2-yl-ethyl)-amide] |
| 8.38 | – | CCN(C(=O)C(C)C)c1cc(C(=O)N[C@@H](C)CO)cc(-c2ccc(C)cc2)c1 [Compound 49, 5-(Ethyl-isobutyryl-amino)-4′-methyl-biphenyl-3-carboxylic acid ((S)-2-hydroxy-1-methyl-ethyl)-amide] |
| 7.85 | – | Cc1ccc(-c2cc(C(=O)N[C@@H](C)CO)cc(N(C)C(=O)C3CCCC3)c2)cc1 [Compound 50, 5-(Cyclopentanecarbonyl-methyl-amino)-4′-methyl-biphenyl-3-carboxylic acid ((S)-2-hydroxy-1-methyl-ethyl)-amide] |
| 7.57 | – | Cc1ccc(-c2cc(C(=O)NC(C)c3cnccn3)cc(N(C)C(=O)C3CCCC3)c2)cc1 (stereo not drawn) [Compound 51, 5-(Cyclopentanecarbonyl-methyl-amino)-4′-methyl-biphenyl-3-carboxylic acid (1-pyrazin-2-yl-ethyl)-amide] |
| 5.9 | – | Cc1ccc(-c2cc(C(=O)NC(C)c3cnccn3)cc(N(C)C(=O)C3CCCCC3)c2)cc1 (stereo not drawn) [Compound 52, 5-(Cyclohexanecarbonyl-methyl-amino)-4′-methyl-biphenyl-3-carboxylic acid (1-pyrazin-2-yl-ethyl)-amide] |
| 7.37 | – | CCC(C)C(=O)N(C)c1cc(C(=O)N[C@@H](C)CO)cc(-c2ccc(C)cc2)c1 (stereo partly drawn) [Compound 53, 4′-Methyl-5-[methyl-(2-methyl-butyryl)-amino]-biphenyl-3-carboxylic acid ((S)-2-hydroxy-1-methyl-ethyl)-amide] |
